Reference: US12077503B2, “Substituted cyclic amides and their use as herbicides” (FMC CORPORATION, priority 2015, dated 2024)

Legend:
Format in all cases: in vivo
[1] = system: sedge, umbrella (small-flower umbrella sedge, Cyperus difformis); test: Test B flooded paddy test; details: Cyperus difformis, 250 g ai/ha, Flood; 0 to 100 scale where 0 is no effect and 100 is complete control; read-out: Sedge, Umbrella plant response rating
Method in brief: (§1)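 Rating scale 0–100 (visual, vs untreated controls) after a 13–15 d greenhouse period; application to the flood layer, 3 cm above soil and maintained; plants at 2-leaf stage when treated.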

[2] = system: barnyardgrass (Echinochloa crus-galli); test: Test B flooded paddy test; details: Echinochloa crus-galli, 250 g ai/ha, Flood; 0 to 100 scale where 0 is no effect and 100 is complete control; read-out: Barnyardgrass plant response rating
Method in brief: as §1

rice (Oryra sativa) = test: Test B flooded paddy test; details: Oryza sativa, 250 g ai/ha, Flood; 0 to 100 scale where 0 is no effect and 100 is complete control; read-out: Rice plant response rating
Method in brief: as §1

[3] = system: ducksalad (Heteranthera limosa); test: Test B flooded paddy test; details: Heteranthera limosa, 250 g ai/ha, Flood; 0 to 100 scale where 0 is no effect and 100 is complete control; read-out: Ducksalad plant response rating
Method in brief: as §1

[4] = system: barnyardgrass (Echinochloa crus-galli); test: Test A preemergence; details: Echinochloa crus-galli, pre-emergence, 240 h, 0 to 100 scale where 0 is no effect and 100 is complete control, read-out: Barnyardgrass plant response rating
Method in brief: (§2)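 Each rating is a visual injury score from 0 to 100 given about 10 d after treatment, judged against untreated controls kept alongside in the greenhouse. In loam soil–sand blend, seeds got a preemergence directed soil spray, while postemergence plants were 2 to 10 cm tall at spraying.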

[5] = system: ryegrass, Italian (Italian ryegrass, Lolium multiflorum); test: Test A preemergence; details: Lolium multiflorum, pre-emergence, 240 h, 0 to 100 scale where 0 is no effect and 100 is complete control, read-out: Ryegrass, Italian plant response rating
Method in brief: as §2

Kochia (Kochia scoparia) [6] = test: Test A preemergence; details: Bassia scoparia, pre-emergence, 240 h, 0 to 100 scale where 0 is no effect and 100 is complete control, read-out: Kochia plant response rating
Method in brief: as §2

[7] = system: ragweed (common ragweed, Ambrosia elatior); test: Test A preemergence; details: Ambrosia artemisiifolia, pre-emergence, 240 h, 0 to 100 scale where 0 is no effect and 100 is complete control, read-out: Ragweed plant response rating
Method in brief: as §2

[8] = system: giant foxtail (Setaria faberii); test: Test A preemergence; details: Setaria faberi, pre-emergence, 240 h, 0 to 100 scale where 0 is no effect and 100 is complete control, read-out: Foxtail, Giant plant response rating
Method in brief: as §2

[9] = system: pigweed (Amaranthus retroflexus); test: Test A preemergence; details: Amaranthus retroflexus, pre-emergence, 240 h, 0 to 100 scale where 0 is no effect and 100 is complete control, read-out: Pigweed plant response rating
[10] = system: Galium (catchweed bedstraw, Galium aparine); test: Test A postemergence; details: Galium, post-emergence, 240 h, read-out: Galium plant response rating (0 to 100 scale)
Method in brief: as §2

[11] = system: wheat (Triticum aestivum); test: Test A postemergence; details: Triticum aestivum, post-emergence, 240 h, Postemergence, 31 g ai/ha; 0 is no effect, 100 is complete control; read-out: Wheat plant response rating (0 to 100 scale)
Method in brief: as §2

[12] = system: barnyardgrass (Echinochloa crus-galli); test: Test A postemergence; details: Echinochloa crus-galli, post-emergence, 240 h, read-out: Barnyardgrass plant response rating (0 to 100 scale)
Method in brief: as §2

corn (Zea mays) = test: Test A postemergence; details: Zea mays, post-emergence, 240 h, read-out: Corn plant response rating (0 to 100 scale)
Method in brief: as §2

[13] = system: ryegrass, Italian (Italian ryegrass, Lolium multiflorum); test: Test A postemergence; details: Lolium multiflorum, post-emergence, 240 h, read-out: Ryegrass, Italian plant response rating (0 to 100 scale)
Method in brief: as §2

Kochia (Kochia scoparia) [14] = test: Test A postemergence; details: Bassia scoparia, post-emergence, 240 h, read-out: Kochia plant response rating (0 to 100 scale)
Method in brief: as §2

[15] = system: ragweed (common ragweed, Ambrosia elatior); test: Test A postemergence; details: Ambrosia artemisiifolia, post-emergence, 240 h, read-out: Ragweed plant response rating (0 to 100 scale)
Method in brief: as §2

[16] = system: blackgrass (Alopecurus myosuroides); test: Test A postemergence; details: Alopecurus myosuroides, post-emergence, 240 h, read-out: Blackgrass plant response rating (0 to 100 scale)
Method in brief: as §2

[17] = system: giant foxtail (Setaria faberii); test: Test A postemergence; details: Setaria faberi, post-emergence, 240 h, read-out: Foxtail, Giant plant response rating (0 to 100 scale)
Method in brief: as §2

[18] = system: pigweed (Amaranthus retroflexus); test: Test A postemergence; details: Amaranthus retroflexus, post-emergence, 240 h, read-out: Pigweed plant response rating (0 to 100 scale)
Method in brief: as §2

[19] = 125 g ai/ha, preemergence, visual injury rating, approximately 10 d
[20] = 125 g ai/ha, postemergence, visual injury vs untreated controls after approx. 10 d, 0 = no effect, 100 = complete control
[21] = Postemergence, 31 g ai/ha, 0 is no effect, 100 is complete control

`Cn1ccc2ccc([C@H]3CNC(=O)[C@@H]3C(=O)Nc3cccc(F)c3F)cc21` [Compound 1263] was tested, and the pest or weed control at 250 g/ha [1] was 0%, the pest or weed control at 250 g/ha [2] was 0% and the pest or weed control at 250 g/ha (rice (Oryra sativa)) was 0%. The pest or weed control at 250 g/ha [3] was 30%, the pest or weed control at 31 g/ha ([4]; 31 g ai/ha, Preemergence) was 0% and the pest or weed control at 125 g/ha [4, 19] was 0%. The pest or weed control at 31 g/ha ([5]; 31 g ai/ha, Preemergence) was 0%, the pest or weed control at 125 g/ha [5, 19] was 0% and the pest or weed control at 31 g/ha (Kochia (Kochia scoparia) [6]; 31 g ai/ha, Preemergence) was 0%. For the same molecule, the pest or weed control at 125 g/ha (Kochia (Kochia scoparia) [6]; [19]) was 0%, the pest or weed control at 31 g/ha ([7]; 31 g ai/ha, Preemergence) was 0% and the pest or weed control at 125 g/ha [7, 19] was 0%. The pest or weed control at 31 g/ha ([8]; 31 g ai/ha, Preemergence) was 0%, the pest or weed control at 125 g/ha [8, 19] was 0% and the pest or weed control at 31 g/ha ([9]; 31 g ai/ha, Preemergence) was 0%. For the same molecule, the pest or weed control at 125 g/ha [9, 19] was 0%, the pest or weed control at 125 g/ha [10, 20] was 0% and the pest or weed control at 31 g/ha [10, 21] was 0%. It also gave a plant injury at 31 g/ha [11] of 0%, a pest or weed control at 125 g/ha [12, 20] of 0% and a pest or weed control at 31 g/ha [12, 21] of 0%. It also gave a plant injury at 125 g/ha (corn (Zea mays); [20]) of 0%, a plant injury at 31 g/ha (corn (Zea mays); [21]) of 0% and a pest or weed control at 125 g/ha [13, 20] of 0%. For the same molecule, the pest or weed control at 31 g/ha [13, 21] was 0%, the pest or weed control at 125 g/ha (Kochia (Kochia scoparia) [14]; [20]) was 0% and the pest or weed control at 31 g/ha (Kochia (Kochia scoparia) [14]; [21]) was 0%. The pest or weed control at 125 g/ha [15, 20] was 0%, the pest or weed control at 31 g/ha [15, 21] was 0% and the pest or weed control at 125 g/ha [16, 20] was 0%. For the same molecule, the pest or weed control at 31 g/ha [16, 21] was 0%, the pest or weed control at 125 g/ha [17, 20] was 0% and the pest or weed control at 31 g/ha [17, 21] was 0%. For the same molecule, the pest or weed control at 125 g/ha [18, 20] was 0% and the pest or weed control at 31 g/ha [18, 21] was 0%.
